Consider two compounds from article PMC11570809, “Novel N-phenyl-2-(aniline) benzamide hydrochloride salt development for colon cancer therapy” (Frontiers in Pharmacology, 2024).

For one data set, the target named is T1, Topo I (Bos taurus, UniProt F1MN93).
T1 construct: purchased Takara Biotechnology, Dalian, China
T1 sequence (F1MN93 1-767): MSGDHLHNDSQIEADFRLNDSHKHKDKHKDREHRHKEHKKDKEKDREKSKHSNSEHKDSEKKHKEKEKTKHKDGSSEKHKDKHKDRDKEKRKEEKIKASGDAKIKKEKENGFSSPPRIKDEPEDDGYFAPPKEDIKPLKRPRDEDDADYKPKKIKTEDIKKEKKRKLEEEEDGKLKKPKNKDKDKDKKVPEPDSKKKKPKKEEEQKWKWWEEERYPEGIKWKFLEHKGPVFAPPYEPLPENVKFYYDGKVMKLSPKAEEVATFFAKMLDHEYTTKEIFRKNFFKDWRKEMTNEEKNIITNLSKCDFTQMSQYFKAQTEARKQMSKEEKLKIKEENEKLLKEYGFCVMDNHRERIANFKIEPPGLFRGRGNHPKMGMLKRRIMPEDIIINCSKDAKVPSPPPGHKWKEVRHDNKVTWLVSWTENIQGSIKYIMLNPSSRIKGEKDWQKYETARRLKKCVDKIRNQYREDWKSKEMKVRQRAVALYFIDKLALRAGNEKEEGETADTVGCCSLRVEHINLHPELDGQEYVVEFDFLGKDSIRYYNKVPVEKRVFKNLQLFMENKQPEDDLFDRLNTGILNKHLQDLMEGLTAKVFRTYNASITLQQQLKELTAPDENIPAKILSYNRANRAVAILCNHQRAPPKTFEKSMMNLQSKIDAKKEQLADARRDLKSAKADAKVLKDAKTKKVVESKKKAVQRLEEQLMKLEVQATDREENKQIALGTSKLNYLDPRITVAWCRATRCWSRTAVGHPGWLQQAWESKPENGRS
The data set is described as follows: Topo I-mediated DNA relaxation assay. It is filed as biochemical. As to conditions: relaxation of supercoiled pBR322. How it is done: In brief, 2 μL Topo I Assay Buffer, 2 μL 0.1% BSA solution, 1 μL 1 U/μL Topo I solution, 0.2 μL test compound solution, and 0.5 μL DNA solution (0.25 μg) were added orderly with the corresponding volume of ultrapure water to make the above system volume 20 μL (Takara Biotechnology, Dalian, China). The above system was incubated at 37°C, the incubation continued for 45 min, and then 10 μL of a mixture of equal phenol and chloroform organic solvent was added for extraction to terminate the reaction. The aqueous phase was separated by centrifugation, the corresponding volume of 6 × DNA loading buffer was added, and then 0.8% agarose gel and 1 × TAE electrophoresis solution were used for electrophoresis at 110 V for 1 h. After electrophoresis, the gel was placed in a 0.5 μg/mL of ethidium bromide (EB) solution for 30 min, then recorded and photographed at 302 nm wavelength.

For the next data set, the system named is HCT116. The data set is described as follows: MTT anti-proliferation assay, HCT116. The conditions noted are these: 72 h, read-out: IC50 ± SD HCT116. In kind it is cell-based, human. The procedure: (§1) The anti-proliferation activities of synthesized compounds to colon cancer cell lines were measured by the MTT (3-[4,5-dimethyl-2-thiazolyl]-2,5-diphenyl-2H-tet razolium bromide) assay. First, the cell suspension was prepared by trypsin and the corresponding medium, cells were diluted to 5 × 10^5 cells/mL, and 96-well plates were added 200 μL per well. The plates were maintained at 37°C in a humidified atmosphere containing 5% CO2 overnight. Then compounds at gradient concentrations were added to cells in the logarithmic phase to make the final concentration at 0.5, 1, 2, 4, 8, 16, and 32 μM. The cells were treated with tested compounds for 72 h, and the growth curve assay was tested in 24 h. When the time was up, 20 μL of MTT solution (5 mg/mL in PBS) was added into each well to incubate for 4 h at 37°C. Then the supernatant liquid was removed, 150 μL DMSO was added into every well to dissolve formazan crystals and read the absorbance at 570 nm by Spark microplate spectrophotometer (Tecan, Swiss). The IC50 values were analyzed by IBM SPASS Statistics 25.0 software. The data are all derived from three parallel experiments (n = 3) and expressed as mean ± SD.
Background: Formazan colour is commonly taken as a measure of viable cells.

In another data set the test system is RKO. The data set is described as follows: MTT anti-proliferation assay, RKO. The conditions noted are these: 72 h, read-out: IC50 ± SD RKO. It is filed as cell-based, human. How it is done:
as §1

Another data set concerns HepG2. Put plainly: MTT anti-proliferation assay, HepG2. It is filed as cell-based, human. The conditions noted are these: read-out: IC50 ± SD HepG2.
The target in another data set is T2, Human COX-2 (Homo sapiens, UniProt P35354).
T2 construct: purchased Beyotime S0168
T2 sequence (P35354 18-604): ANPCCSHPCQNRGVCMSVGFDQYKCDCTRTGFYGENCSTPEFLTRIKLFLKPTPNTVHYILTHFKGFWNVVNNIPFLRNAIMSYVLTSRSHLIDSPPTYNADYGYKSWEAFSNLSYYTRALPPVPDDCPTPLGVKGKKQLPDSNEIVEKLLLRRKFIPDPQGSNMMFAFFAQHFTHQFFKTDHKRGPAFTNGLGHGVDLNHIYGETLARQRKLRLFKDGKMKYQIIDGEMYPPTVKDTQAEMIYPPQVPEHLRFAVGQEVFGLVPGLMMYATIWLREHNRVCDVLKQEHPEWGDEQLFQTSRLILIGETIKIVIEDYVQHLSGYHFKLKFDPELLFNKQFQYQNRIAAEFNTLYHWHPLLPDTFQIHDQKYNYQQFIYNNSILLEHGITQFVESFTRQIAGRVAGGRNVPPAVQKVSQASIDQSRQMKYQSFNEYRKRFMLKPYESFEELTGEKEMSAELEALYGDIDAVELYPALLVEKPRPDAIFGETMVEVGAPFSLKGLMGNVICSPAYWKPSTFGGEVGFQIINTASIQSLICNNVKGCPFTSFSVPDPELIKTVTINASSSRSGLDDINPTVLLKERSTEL
Put plainly: COX-2 inhibition assay (Human COX-2 Inhibitor Screening Kit). In kind it is biochemical. The procedure:
The COX-2 inhibitory activity of all the synthesized compounds was measured by the Human COX-2 Inhibitor Screening Kit (Beyotime, catalog no. S0168), and the specific steps were followed strictly according to the instructions. The lead compound N53 was also tested for reference purposes. The absorbance was measured at an excitation wavelength of 560 nm and an emission wavelength of 590 nm in a microplate reader. Each experimental condition was performed in triplicate and averaged.

Data set [1] can be described thus: Hygroscopicity and stability of the salt forms. It is filed as physicochemical. As to conditions: solid salt.
For another data set, the system named is HT29 cells. Put plainly: Plane colony assay, HT29. As to conditions: HT29, 1, 2 and 4 µM. In kind it is cell-based, human. The procedure:
In 6-well plates, HT29 cells and RKO cells (1 × 10^3 cells/well) were inoculated and maintained overnight. Then treated with N53 and N53·HCl at different concentrations for 24 h and with normal culture-medium for 7 days respectively. After that, removed supernatant and fixed by 4% paraformaldehyde for 15 min. Then fixed cells were stained with 1% crystal violet dye for 15 min and rinsed with water. Finally, colonies were counted according to rules that nonoverlapping groups of at least 50 cells. The data are all derived from three parallel experiments (n = 3) and expressed as mean ± SD.

SMILES strings stand for the structures. Where a name gives a salt, the structure may show the parent alone. Read-outs that look alike come from different tables or passages of the source.

For orientation: IC50 means the concentration at which inhibition is half-maximal. Consider `Cc1c(Cl)cccc1Nc1ccccc1C(=O)Nc1ccc(N2CCN(C)CC2)cc1` [Compound N53, 2-((3-chloro-2-methylphenyl)amino)-N-(4-(4-methylp-iperazin-1-yl)phenyl)benzamide], for which the “Inhibition rate (%) of Topo I (100 μM)” value on Topo I came out at 11.7%. Also, the figures for the IC50 in the data set on HCT116, in the data set on RKO and in the data set with HepG2 (72 h) were 3.89 ± 0.41 µM, 6.29 ± 0.54 µM and 2.31 ± 0.09 µM, respectively. Further, the “Inhibition rate (%) of COX-2 (2 μM)” value on Human COX-2 is reported as 3.6 ± 1.1%.
As to `Cc1c(Cl)cccc1Nc1ccccc1C(=O)Nc1ccc(N2CCN(C)CC2)cc1` [N53·HCl, 4-(4-(2-((3-chloro-2-methylphenyl)amino)ben-zamido)phenyl)-1-methylpiperazin-1-ium], on Topo I, the “Inhibition rate (%) of Topo I (100 μM)” value is recorded as 55.1%. In addition, the concentration for half-maximal inhibition (IC50) in the data set on HCT116 came to 10.9 ± 1.3 µM; with RKO (Homo sapiens, RKO), 7.99 ± 0.85 µM; in the data set on HepG2 (Homo sapiens, HepG2, 72 h) it was 4.12 ± 0.39 µM. Also, the Hygroscopicity result in data set [1] is “low in hygroscopicity”. In addition, the Stability entry in data set [1] is listed as “relatively stable under various conditions”. In addition, the “Number of cell clones formed” value with HT29 cells is “decreased significantly and dose-dependently”. The “Inhibition rate (%) of COX-2 (2 μM)” value at Human COX-2 is given as 32.5 ± 7.8%.
